Source: publication PMC11464693 (Nature Communications, 2024)

Experiments:
XylC = XylC (Caulobacter vibrioides, UniProt A0A0H3C6P8); assay: decrease of p-nitrophenol absorbance at […] nm; assay type: biochemical; conditions: spontaneous hydrolysis controlled
XylD = target: T1, XylD (Caulobacter vibrioides, UniProt A0A0H3C6H6); assay: semicarbazone assay at […] nm; assay type: biochemical; conditions: 37 °C
T1 sequence (A0A0H3C6H6 1-591): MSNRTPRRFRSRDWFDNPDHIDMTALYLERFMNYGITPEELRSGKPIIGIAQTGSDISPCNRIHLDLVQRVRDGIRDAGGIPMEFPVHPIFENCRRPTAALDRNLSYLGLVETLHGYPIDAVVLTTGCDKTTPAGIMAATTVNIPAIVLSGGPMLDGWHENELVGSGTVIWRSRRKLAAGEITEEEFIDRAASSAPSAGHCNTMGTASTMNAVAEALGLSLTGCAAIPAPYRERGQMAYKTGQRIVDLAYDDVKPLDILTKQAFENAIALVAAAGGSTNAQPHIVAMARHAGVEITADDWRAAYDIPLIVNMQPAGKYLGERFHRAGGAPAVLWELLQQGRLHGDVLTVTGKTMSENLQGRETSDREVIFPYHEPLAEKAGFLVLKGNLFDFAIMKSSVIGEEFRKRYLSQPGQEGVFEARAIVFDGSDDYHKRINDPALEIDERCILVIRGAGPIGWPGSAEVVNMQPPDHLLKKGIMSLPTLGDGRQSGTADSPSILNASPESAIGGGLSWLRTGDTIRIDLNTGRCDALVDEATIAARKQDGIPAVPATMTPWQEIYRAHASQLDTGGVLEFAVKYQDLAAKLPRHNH

KGSADH = target: T2, KGSADH (Caulobacter vibrioides, UniProt A0A0H3C801); assay: NADH formation at […] nm; assay type: biochemical
T2 sequence (A0A0H3C801 1-478): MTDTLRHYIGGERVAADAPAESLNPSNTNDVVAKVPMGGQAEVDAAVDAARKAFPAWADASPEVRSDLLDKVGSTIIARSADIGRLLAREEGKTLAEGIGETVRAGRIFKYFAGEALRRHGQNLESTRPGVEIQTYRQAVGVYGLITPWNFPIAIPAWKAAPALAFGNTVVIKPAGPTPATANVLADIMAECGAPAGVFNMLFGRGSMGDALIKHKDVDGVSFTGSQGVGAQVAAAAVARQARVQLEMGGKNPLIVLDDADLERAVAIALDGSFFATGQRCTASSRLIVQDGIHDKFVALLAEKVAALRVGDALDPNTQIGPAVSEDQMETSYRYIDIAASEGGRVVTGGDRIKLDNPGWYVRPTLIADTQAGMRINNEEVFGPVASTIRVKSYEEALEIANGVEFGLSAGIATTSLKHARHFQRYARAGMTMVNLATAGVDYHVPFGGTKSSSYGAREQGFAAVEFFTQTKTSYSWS

laccase (Lac) = target: T3, laccase (Lac) (Bacillus subtilis, UniProt P07788); assay: ABTS oxidation at […] nm, whole cells; assay type: cell-based; conditions: 5 mM ABTS, 37 °C, pH optimum 5.0; surface-displayed enzyme
T3 sequence (P07788 1-513): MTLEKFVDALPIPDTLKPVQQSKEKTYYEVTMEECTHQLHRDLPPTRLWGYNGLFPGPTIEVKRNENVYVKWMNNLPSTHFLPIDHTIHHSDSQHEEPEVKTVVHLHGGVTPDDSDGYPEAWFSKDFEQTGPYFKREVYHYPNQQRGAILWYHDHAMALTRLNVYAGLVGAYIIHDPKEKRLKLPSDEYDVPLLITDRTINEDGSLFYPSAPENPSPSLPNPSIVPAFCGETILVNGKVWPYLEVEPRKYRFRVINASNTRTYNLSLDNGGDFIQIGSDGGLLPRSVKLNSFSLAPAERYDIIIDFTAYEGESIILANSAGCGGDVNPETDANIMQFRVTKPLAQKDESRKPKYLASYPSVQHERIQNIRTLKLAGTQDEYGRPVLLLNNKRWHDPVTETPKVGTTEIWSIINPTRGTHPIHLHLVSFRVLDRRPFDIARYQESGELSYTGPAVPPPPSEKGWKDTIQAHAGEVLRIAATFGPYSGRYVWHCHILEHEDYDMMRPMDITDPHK

XDH = target: T4, XDH (Caulobacter vibrioides, UniProt B8H1Z0); assay: NADH formation at […] nm; assay type: biochemical; conditions: 10 mM D-xylose, 1 mM NAD+, 37 °C
T4 sequence (B8H1Z0 1-248): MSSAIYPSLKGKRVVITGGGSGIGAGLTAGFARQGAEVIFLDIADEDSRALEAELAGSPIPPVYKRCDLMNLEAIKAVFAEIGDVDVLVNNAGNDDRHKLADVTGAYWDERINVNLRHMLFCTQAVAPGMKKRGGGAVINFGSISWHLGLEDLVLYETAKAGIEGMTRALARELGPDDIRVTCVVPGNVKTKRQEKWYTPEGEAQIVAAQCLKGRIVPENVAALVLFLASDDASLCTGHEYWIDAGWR

Chain of XylC (A0A0H3C6P8 1-289): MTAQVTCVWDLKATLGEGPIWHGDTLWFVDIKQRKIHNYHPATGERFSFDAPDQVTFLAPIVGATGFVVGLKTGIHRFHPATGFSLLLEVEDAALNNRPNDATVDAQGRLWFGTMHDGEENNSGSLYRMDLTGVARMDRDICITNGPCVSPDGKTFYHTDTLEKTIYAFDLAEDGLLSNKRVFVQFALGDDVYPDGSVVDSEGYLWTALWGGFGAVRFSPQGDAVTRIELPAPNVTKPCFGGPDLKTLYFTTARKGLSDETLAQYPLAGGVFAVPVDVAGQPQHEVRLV

Compound: O=C1O[C@H](CO)[C@H](O)[C@H]1O [xylono-1,4-lactone]
- decrease of p-nitrophenol absorbance at 405 nm (XylC): To examine the activity of XylC, D-xylono-lactone was used as substrate to produce D-xylonic acid

Compound: O=C(O)[C@H](O)[C@@H](O)[C@H](O)CO [D-xylonic acid]
- semicarbazone assay at 250 nm (XylD): D-xylonic acid would be transformed into 2-keto-3-deoxyxylic acid by XylD

Compound: O=CCCCC=O [glutaraldehyde]
- NADH formation at 340 nm (KGSADH; NAD+, substitute substrate): monitored by measuring the generation of NADH using analogous glutaraldehyde as substrate

Compound: CCn1c(=NN=c2sc3cc(S(=O)(=O)O)ccc3n2CC)sc2cc(S(=O)(=O)O)ccc21 [ABTS, 2,2’-azino-bis (3-ethylbenzothiazoline-6-sulfonic acid)]
- ABTS oxidation at 420 nm, whole cells (laccase (Lac)): The oxidation activity of E. coli-Lac towards ABTS was calibrated by measuring the absorbance

Compound: NC(=O)c1ccc[n+]([C@@H]2O[C@H](COP(=O)(O)OP(=O)(O)OC[C@H]3O[C@@H](n4cnc5c(N)ncnc54)[C@H](O)[C@@H]3O)[C@@H](O)[C@H]2O)c1 [NAD^+]
- NADH formation at 340 nm (XDH): catalyzed by XDH using NAD^+ as coenzyme
- NADH formation at 340 nm (KGSADH; glutaraldehyde as substrate): activity of KGSADH by following the rate of NAD^+ reduction

Compound: OC1OC[C@@H](O)[C@H](O)[C@H]1O (stereo partly drawn) [D-xylose]
- NADH formation at 340 nm (XDH): D-xylose is oxidized into D-xylono-lactone and generates NADH catalyzed by XDH
